Results published in patent US20260256792A1, “TREATMENT OF CHRONIC SPONTANEOUS URTICARIA BY ADMINISTERING (R)-2-[3-[4-AMINO-3-(2-FLUORO-4-PHENOXY-PHENYL)PYRAZOLO[3,4-D]PYRIMIDIN-1-YL]PIPERIDINE-1-CARBONYL]-4-METHYL-4-[4-(OXETAN-3-YL)PIPERAZIN-1-YL]PENT-2-ENENITRILE” (priority 2023, published 2026).

Test system: moderate-to-severe chronic spontaneous urticaria (CSU)
Experiment: Phase 2 CSU study: urticaria control test (UCT)
Type: in vivo, human
Design: key to UCT, Mean / UCT, Median / UCT change from baseline, Mean / UCT change from baseline, Median: UCT total = sum of 4 item scores; low = low disease control
Text: The study comprises a 12 week, randomized, double-blind, placebo-controlled, multi-center, dose-ranging efficacy and safety phase, followed by a 40 week open label extension (OLE) phase (see FIG. 1). The study consists of three phases and an optional OLE phase. […] To this end, the UCT was proposed as a tertiary endpoint in this study. […] The dermatology life quality index (DLQI) was proposed as a tertiary endpoint in this study. […] Low scores indicate high disease activity and low disease control. The UCT total score is calculated by adding all 4 individual item scores. […] The recall period is the previous 4 weeks. Patients were to complete the UCT questionnaire during their site visit.

[1] = 400 mg BID, End of study, omalizumab-naïve population
[2] = 400 mg BID, End of study, prior omalizumab use incl. incomplete responders
[3] = 400 mg BID, Week 4, ITT population
[4] = 400 mg BID, Week 4, omalizumab-naïve population
[5] = 400 mg BID, Week 4, prior omalizumab use incl. incomplete responders
[6] = 400 mg BID, Week 8, ITT population
[7] = 400 mg BID, Week 8, omalizumab-naïve population
[8] = 400 mg BID, Week 8, prior omalizumab use incl. incomplete responders
[9] = 400 mg BID, Week 12, ITT population
[10] = 400 mg BID, Week 12, omalizumab-naïve population
[11] = 400 mg BID, Week 12, prior omalizumab use incl. incomplete responders
[12] = 400 mg QPM, End of study, omalizumab-naïve population
[13] = 400 mg QPM, End of study, prior omalizumab use incl. incomplete responders
[14] = 400 mg QPM, Week 4, ITT population
[15] = 400 mg QPM, Week 4, omalizumab-naïve population
[16] = 400 mg QPM, Week 4, prior omalizumab use incl. incomplete responders

## CC(C)(C=C(C#N)C(=O)N1CCC[C@@H](n2nc(-c3ccc(Oc4ccccc4)cc3F)c3c(N)ncnc32)C1)N1CCN(C2COC2)CC1 [rilzabrutinib, (R)-2-[3-[4-amino-3-(2-fluoro-4-phenoxy-phenyl)pyrazolo[3,4-d]pyrimidin-1-yl]piperidine-1-carbonyl]-4-methyl-4-[4-(oxetan-3-yl)piperazin-1-yl]pent-2-enenitrile]
[1]
  UCT change from baseline, Mean: 0.00
  UCT change from baseline, Median: −2.00
  UCT percent change from baseline, Mean: −21.27%
  UCT percent change from baseline, Median: −57.14%
  UCT, Median: 3.00
[2]
  UCT change from baseline, Median: 5.50
  UCT percent change from baseline, Mean: 4.33%
  UCT percent change from baseline, Median: 4.00%
  UCT, Mean: 2.67
  UCT, Median: 3.00
[3]
  UCT % Change difference for rilzabrutinib vs. placebo LS Mean (95% CI): 96.74 (−24.75, 218.23) %
  UCT % Change from baseline LS Mean (SE): 236.29 (42.88) %
  UCT Change difference for rilzabrutinib vs. placebo LS Mean (95% CI): 0.94 (−0.87, 2.75)
  UCT Change from baseline LS Mean (SE): 4.27 (0.65)
  UCT Post-baseline Mean (SD): 8.56 (4.95)
[4]
  UCT % Change difference for rilzabrutinib vs. placebo LS Mean (95% CI): 120.19 (−1.20, 241.59) %
  UCT % Change from baseline LS Mean (SE): 263.00 (44.80) %
  UCT Change difference for rilzabrutinib vs. placebo LS Mean (95% CI): 1.27 (−0.56, 3.11)
  UCT Change from baseline LS Mean (SE): 4.51 (0.66)
  UCT Post-baseline Mean (SD): 8.85 (4.53)
  UCT change from baseline, Mean: 4.21
  UCT change from baseline, Median: 4.00
  UCT percent change from baseline, Mean: 220.19%
  UCT percent change from baseline, Median: 75.00%
  UCT, Mean: 8.85
  UCT, Median: 9.00
[5]
  UCT change from baseline, Mean: 4.33
  UCT change from baseline, Median: 4.00
  UCT percent change from baseline, Mean: 151.39%
  UCT percent change from baseline, Median: 137.50%
  UCT, Median: 5.50
[6]
  UCT % Change difference for rilzabrutinib vs. placebo LS Mean (95% CI): 139.58 (18.06, 261.09) %
  UCT % Change from baseline LS Mean (SE): 304.12 (43.11) %
  UCT Change difference for rilzabrutinib vs. placebo LS Mean (95% CI): 1.01 (−0.90, 2.92)
  UCT Change from baseline LS Mean (SE): 5.38 (0.68)
  UCT Post-baseline Mean (SD): 10.00 (4.71)
[7]
  UCT % Change difference for rilzabrutinib vs. placebo LS Mean (95% CI): 158.55 (28.05, 289.04) %
  UCT % Change from baseline LS Mean (SE): 328.12 (46.96) %
  UCT Change difference for rilzabrutinib vs. placebo LS Mean (95% CI): 1.14 (−0.74, 3.02)
  UCT Change from baseline LS Mean (SE): 5.61 (0.69)
  UCT Post-baseline Mean (SD): 10.12 (4.20)
  UCT change from baseline, Mean: 5.70
  UCT change from baseline, Median: 5.00
  UCT percent change from baseline, Mean: 290.62%
  UCT percent change from baseline, Median: 114.29%
[8]
  UCT change from baseline, Median: 11.00
  UCT percent change from baseline, Mean: 248.33%
  UCT percent change from baseline, Median: 275.00%
  UCT, Mean: 9.20
  UCT, Median: 14.00
[9]
  UCT % Change difference for rilzabrutinib vs. placebo LS Mean (95% CI): 109.34 (−24.34, 243.02) %
  UCT % Change from baseline LS Mean (SE): 309.12 (47.68) %
  UCT Change difference for rilzabrutinib vs. placebo LS Mean (95% CI): 0.71 (−1.27, 2.68)
  UCT Change from baseline LS Mean (SE): 5.44 (0.71)
  UCT Post-baseline Mean (SD): 9.92 (4.69)
[10]
  UCT % Change difference for rilzabrutinib vs. placebo LS Mean (95% CI): 146.79 (5.56, 288.02) %
  UCT % Change from baseline LS Mean (SE): 344.03 (53.11) %
  UCT Change difference for rilzabrutinib vs. placebo LS Mean (95% CI): 0.80 (−1.21, 2.81)
  UCT Change from baseline LS Mean (SE): 5.52 (0.74)
  UCT Post-baseline Mean (SD): 10.03 (4.29)
  UCT change from baseline, Mean: 5.65
  UCT change from baseline, Median: 4.00
  UCT percent change from baseline, Mean: 301.53%
  UCT percent change from baseline, Median: 130.95%
[11]
  UCT change from baseline, Median: 8.00
  UCT percent change from baseline, Mean: 246.67%
  UCT percent change from baseline, Median: 266.67%
  UCT, Mean: 9.20
[12]
  UCT change from baseline, Mean: 8.50
  UCT change from baseline, Median: 8.50
  UCT percent change from baseline, Mean: 283.33%
  UCT percent change from baseline, Median: 283.33%
[13]
  UCT change from baseline, Mean: 8.00
  UCT change from baseline, Median: 8.00
  UCT percent change from baseline, Mean: 3.00%
  UCT percent change from baseline, Median: 3.00%
  UCT, Mean: 5.00
  UCT, Median: 5.00
[14]
  UCT % Change difference for rilzabrutinib vs. placebo LS Mean (95% CI): −44.03 (−169.40, 81.34) %
  UCT % Change from baseline LS Mean (SE): 95.52 (42.85) %
  UCT Change difference for rilzabrutinib vs. placebo LS Mean (95% CI): −0.89 (−2.79, 1.00)
  UCT Change from baseline LS Mean (SE): 2.44 (0.68)
  UCT Post-baseline Mean (SD): 6.40 (3.11)
[15]
  UCT % Change difference for rilzabrutinib vs. placebo LS Mean (95% CI): −48.50 (−174.55, 77.55) %
  UCT % Change from baseline LS Mean (SE): 94.30 (43.68) %
  UCT Change difference for rilzabrutinib vs. placebo LS Mean (95% CI): −0.88 (−2.74, 0.99)
  UCT Change from baseline LS Mean (SE): 2.36 (0.66)
  UCT Post-baseline Mean (SD): 6.35 (3.14)
  UCT change from baseline, Mean: 2.27
  UCT change from baseline, Median: 2.00
  UCT percent change from baseline, Mean: 102.47%
  UCT percent change from baseline, Median: 45.00%
  UCT, Median: 6.00
[16]
  UCT change from baseline, Mean: 3.00
  UCT change from baseline, Median: 3.00
  UCT percent change from baseline, Mean: 60.00%
  UCT percent change from baseline, Median: 60.00%
  UCT, Mean: 8.00
  UCT, Median: 8.00
